Columns and labels:
[1] = tested on: MDA-MB-231 breast carcinoma cells; assay: In vivo tumor formation, orthotopic mouse model, MDA-MB-231 breast carcinoma cells; details: 500,000 MDA-MB-231 cells treated with Morpholino before injection
Text: (A) In vivo tumor formation in a mouse injected with MDA-MB-231 cells pre-exposed for 3 days to either a control matrix (Matrigel) or a matrix conditioned by hESCs (H9 CMTX) (n=10) (B) C81-61 cells, transfected with either an empty vector or a Nodal expression construct (n=5), and (C) MDA-MB-231 cells treated with either MO^Control or MO^Nodal (n=10). […] (D) The ratio of tumor cell proliferation to apoptosis for C8161 and MDA-MB-231 derived tumors, determined by immunohistochemical staining for Ki67 and terminal deoxynucleotidyl transferase biotin-dUTP nick-end labeling (TUNEL). Prior to injection into a mouse, C8161 and MDA-MB-231 cells were cultured for 3 days on control or hESC conditioned (H9 CMTX) matrices, or treated with MO^Nodal to knock down Nodal expression. […] Proliferation is indicated by Ki67 staining and apoptotic nuclei were detected with confocal microscopy as red staining localized to the nuclei of apoptotic C8161 or MDA-MB-231 cells. […]
The effects of the hESC microenvironment on the in vivo tumorigenicity of melanoma and breast carcinoma cells were examined using orthotopic mouse models. […] The […] C81-61 melanoma cell line was unable to form palpable tumors when 500,000 cells were injected, and using gross observation and histology 5.5 weeks after inoculation, these tumor cells could not be detected at the site of injection. […]

[2] = tested on: MDA-MB-231 breast carcinoma cells; assay: In vivo tumor cell proliferation-to-apoptosis ratio (Ki67/TUNEL), MDA-MB-231 derived tumors; details: MDA-MB-231 treated before injection into mouse
Text: (A) In vivo tumor formation in a mouse injected with MDA-MB-231 cells pre-exposed for 3 days to either a control matrix (Matrigel) or a matrix conditioned by hESCs (H9 CMTX) (n=10) (B) C81-61 cells, transfected with either an empty vector or a Nodal expression construct (n=5), and (C) MDA-MB-231 cells treated with either MO^Control or MO^Nodal (n=10). […] (D) The ratio of tumor cell proliferation to apoptosis for C8161 and MDA-MB-231 derived tumors, determined by immunohistochemical staining for Ki67 and terminal deoxynucleotidyl transferase biotin-dUTP nick-end labeling (TUNEL). Prior to injection into a mouse, C8161 and MDA-MB-231 cells were cultured for 3 days on control or hESC conditioned (H9 CMTX) matrices, or treated with MO^Nodal to knock down Nodal expression. […] (E) Immunohistochemical analysis of Ki67 expression (red/brown) and TUNEL staining in orthotopic melanoma (C8161) and breast carcinoma (MDA-MB-231) tumors. […] Proliferation is indicated by Ki67 staining and apoptotic nuclei were detected with confocal microscopy as red staining localized to the nuclei of apoptotic C8161 or MDA-MB-231 cells. […]
In order to establish a mechanism by which exposure to the hESC microenvironment abrogates tumorigenicity, the effects of this treatment on the in vivo tumor cell proliferation-to-apoptosis ratio were analyzed. […]

## MO^Nodal: FITC-conjugated anti-sense Morpholino to Nodal, 5′-AAGCAGCACCTCCAGCCCTTATATC-3′ [SEQ ID NO: 20] (all phosphorodiamidate morpholino (PMO); FITC conjugated, position not given here)
[1]
  tumorigenicity: significant reduction
[2]
  ratio of proliferation to apoptosis: decreased
